Assay results from PMC9875028, “Identification and virtual screening of novel anti-inflammatory peptides from broccoli fermented by Lactobacillus strains” (Frontiers in Nutrition, 2023).
“Also recorded” adds a separate entry of the source.

Assays:
[1] = tested on: TNF-α; assay: TNF-α secretion by LPS-stimulated RAW264.7 cells (ELISA); format: cell-based, Mouse; conditions: for inhibition rate on TNF-α / effect on TNF-α production (in words): LPS 200 ng/mL; for inhibition rate on TNF-α: mean ± SD, n = 3; for effect on TNF-α production (in words): synthetic peptides 25, 50, 100 μM
Method: (§1) RAW264.7 cells were cultured in DMEM medium containing 10% FBS and 1% double antibody at 37°C and 5% CO2 incubator. CCK-8 reagent was used for cell viability assay.
(§2) RAW264.7 cells (3 × 10^6 cells / mL) seeded into 12-well plates were pretreated with various concentrations of broccoli hydrolyzates or synthetic peptides for 2 h before stimulation by LPS (200 ng/mL). NO was determined using Griess reagent. TNF-α and IL-6 were measured by ELISA kits according to the manufacturer's instructions. More details of the assay are shown in Supplementary Table S2.

[2] = tested on: IL-6; assay: IL-6 secretion by LPS-stimulated RAW264.7 cells (ELISA); format: cell-based, Mouse; conditions: for effect on IL-6 production (in words): synthetic peptides 25, 50, 100 μM
Method: as §1, §2

[3] = tested on: NO; assay: NO release from LPS-stimulated RAW264.7 cells (Griess reagent); format: cell-based, Mouse; conditions: LPS 200 ng/mL; for inhibition rate of NO release: mean ± SD, n = 3
Method: as §1, §2

[4] = tested on: TNF-α; design: method as in doi:10.1016/j.jff.2020.104044; conditions: sturgeon protein peptide; cited from earlier work
[5] = tested on: IL-6; design: method as in doi:10.1016/j.jff.2020.104044; conditions: sturgeon protein peptide; cited from earlier work
[6] = peptide concentration exceeding 25 μM

Row | Substance | inhibition rate on TNF-α ([1]; synthetic peptide 100 μM) [%] | effect on TNF-α production (in words) [1] | effect on IL-6 production (in words) ([2]; LPS 200 ng/mL) | further results
1 | ADLAHLPF [synthetic peptide identified from broccoli hydrolysate] | 73.19 ± 5.31 | significantly inhibited; also recorded: dose-dependently decreased TNF-α | significantly inhibited | 
2 | CKVWPPLH | 73.83 ± 0.81 | dose-dependently decreased TNF-α |  | 
3 | DGRYW [synthetic peptide identified from broccoli hydrolysate] |  |  |  | inhibition rate of NO release ([3]; synthetic peptide 100 μM): 53.94 ± 2.49%; effect on NO secretion (in words) ([3]; synthetic peptides 25, 50, 100 μM): reduced NO content in inflammatory cells in a dose-dependent manner
4 | FGDFNPGGRL [synthetic peptide identified from broccoli hydrolysate] | 68.44 ± 5.63 | dose-dependently decreased TNF-α | only inhibited IL-6 at a concentration of 50 μM | 
5 | GDRW [synthetic peptide identified from broccoli hydrolysate] |  | significantly inhibited | significantly inhibited | 
6 | KASFAFAGL [synthetic peptide identified from broccoli hydrolysate] |  |  |  | inhibitory activity on TNF-α secretion (in words) [1, 6]: did not show inhibitory activity; inhibition rate on TNF-α ([1]; synthetic peptide 25 μM (low dose)): 43.59 ± 0.27%; inhibitory activity on IL-6 secretion (in words) [2, 6]: did not show inhibitory activity; inhibition rate on IL-6 ([2]; synthetic peptide 25 μM (low dose), LPS 200 ng/mL, mean ± SD, n = 3): 29.84 ± 0.63%
7 | KIWHHFF |  |  |  | TNF-α inhibitory activity (in words) [4]: did not exhibit TNF-α inhibitory activity; inhibition of LPS-induced IL-6 secretion (in words) [5]: inhibited LPS-induced IL-6 secretion only at the lowest concentration
8 | SIWYGPDRP [synthetic peptide identified from broccoli hydrolysate] |  |  |  | inhibition rate of NO release ([3]; synthetic peptide 25 μM): 52.32 ± 1.48%
